From US11725027B2, “Hypersensitive response elicitor-derived peptides and use thereof” (priority 2016, dated 2023)
Marks after values point to notes of the source that are not given here.

How the values were obtained:
Type in all cases: in vivo
[1] = system: Nicotiana tabacum cultivar xanthi plants; experiment: Hypersensitive Response (HR) induction in tobacco leaves; set-up: key to HR: Plants are considered HR-positive (“HR+”) if they exhibit wide-spread macroscopic cell death visible to the naked eye, accompanied by wilting and browning of the affected tissue within 48 hours; Plants are considered HR-negative (“HR−”) if they exhibit no discernible wilting or tissue death observable by naked eye; conditions: for HR: tobacco leaf infused with 500, 250, 125, 62.5, 31.25 μg/ml peptide solutions, scored over 48 hours; for elicitation of HR, effect of Met to Ala mutations: tobacco
Excerpt: A property of a peptide to elicit a hypersensitive response, or not, upon infiltration or application of the peptide to plant tissues can be measured by applying the peptide in dry powder form or in solution form to a plant, particularly though not exclusively a plant leaf.
The minimal eliciting sequence derived from was developed based on the sequence of the hrex gene from Xanthomonas campestris pv. pelargonii. A number of truncated and mutated sequences were synthesized and tested for Hypersensitive Response induction (results in Table 4). HR in tobacco was tested as described in Wei, Science 257:85-88 (1992), which is hereby incorporated by reference in its entirety. Briefly, peptides were dissolved at a concentration of 500 μg/ml in aqueous solution. Four serial dilutions were performed with an equal volume of water, yielding peptide samples at 500, 250, 125, 62.5, 31.25 μg/ml peptide solutions. Nicotiana tabacum cultivar xanthi plants were used at 5-7 weeks old (preflowering). Leaves were lightly punctured with a toothpick in a middle leaf panel. Peptide solutions were then infused via needle-less syringe into the wound, filling the panel. Each peptide sample was infused into a leaf of 2 different plants. The leaves were observed and scored over the next 48 hours for withering and browning, lesions typical of programmed cell death. These studies had […] main goals: (1) determine the minimal sequence sufficient for HR elicitation (2) increase the solution stability of the peptides; (3) make disruptive mutations to verify the residues which are most important for HR elicitation; (4) make conservative mutations to identify the degree of specificity for particular amino acids.

[2] = system: tobacco mosaic virus (TMV); experiment: Induction of resistance to tobacco mosaic virus in tobacco; conditions: % decline in TMV lesions vs UTC, spray 20 ug/ml; for Effectiveness Covered (%): covered leaf (systemic response); for Effectiveness Uncovered (%): uncovered leaf (local response)
Procedure: Peptides were tested for the induction of resistance to tobacco mosaic virus (TMV) in tobacco. Briefly, three tobacco plants at 6-8 weeks old were selected per group (samples and controls). The bottom-most leaf of the plant was covered and the plant was sprayed with a solution of water (untreated control—UTC), peptide, or Proact (positive control). The spray was applied until the leaves were fully wetted, indicated by liquid dripping from the leaves. The plants were then allowed to dry and the leaf covering was removed.
Three days post-treatment, the previously-covered leaf and a leaf on the opposite side of the plant were then lightly dusted with diatomaceous earth and 20 ul of a 1.7 ug/ml solution of purified tobacco mosaic virus was applied. The TMV solution was then spread across the leaf surface by lightly rubbing solution and the diatomaceous earth across the surface of the leaves. Two minutes after inoculation, the diatomaceous earth was rinsed off the leaves with water. 3 days after TMV inoculation, the leaves were scored based on the number of TMV lesions observed. The leaf was also scored for signs of the hypersensitive response, including yellowing and wilting of the affected leaves.
Effectiveness described in Table 6 refers to the % decline in TMV lesions on treated vs UTC plants. A reduction of TMV on covered leaves indicates a systemic immune response in the plant while reduction on uncovered leaves indicates a local response. Asterisks indicate that the P-value derived from a T-test was <0.05.

soy = experiment: Drought resistance in soy (greenhouse, spray); conditions: soy under cyclic drought
Procedure: The effectiveness of peptide treatment in reducing drought stress was assessed in soy. 3.5 inch pots were filled with Sunshine #1 soil (SunGro Horticulture), fertilized with a 20-10-20 mixture. The soil was soaked and drained overnight. Seeds (soy, manually inspected to ensure uniform seed size) were planted at a depth of half inch for germination. Plants were grown in a greenhouse under 16 hour light days at >70° F. and 8 hour dark nights at >65° F. Prior to drought conditions, the plants were well-watered.
When the plants reached the growth stage when first trifoliate expanded, plants were culled to achieve a uniform height (abnormally large and small plants were removed). Plants were then randomly assigned to control (spray without peptide) or treatment (spray with peptide) groups and heights were measured. Peptide was made up in a solution of 0.2 ug/ml or 2 ug/ml in distilled water+0.04% Tween-20, and applied as a fine mist from a spray bottle until the solution drips from the leaves. After the peptide solutions were dried, the plants were again randomized in a randomized complete block design. Cyclic drought stress was initiated after the peptide treatment. Plants were subjected to at least three drought cycles of drought stress (3-5 days of withholding water and 1 day irrigated with saturating amount of water) before harvesting.
The drought test phase ended after 2-3 weeks. At that time, the plant height was again measured and the growth rate was calculated as the difference between this and the previously-recorded height. The above-ground part portions of the plants were harvested and weighed to obtain fresh weight. The above-ground portion was also dried in an oven at 70° C. for 72 hours to obtain dry weight. All calculations were compared with matched untreated control plants.

Sequence | HR [1] | also measured
SEEELDLLLAFIAAALEE [Peptide P5-11] | - | 
SAGSEQQLDLLLAFIAAAL [Peptide P5-6] | - | Effectiveness Covered (%) [2]: 36%; Effectiveness Uncovered (%) [2]: 62%
SEEQLDQLLLAFIAAALEE [Peptide P5-28] | Weak+ | 
SAGSEQQLDLLLAFIEALQQ [Peptide P5-65] | - | 
SAGSEQQLDLLLEFIAAALQQ [Peptide P5-70] | - | 
SAGSEQQLDLLLAFIAEALQQ [Peptide P5-66] | Weak+ | 
SEEEQLDQLLLMFIMMMLQEE [Peptide P5-34] | + | 
SAGSEQQLDLLLMFEMMMLQQ [Peptide P5-41] | - | 
SEEQLDLLLEFIEEELQQEE [Peptide P5-48] | - | 
SAGSEQQLDQELLMFIMMMLQQ [Peptide P5-54] | - | 
SEEELDLLLAFIEEELEE [Peptide P5-12] | - | 
SAGSEQQEDLLLAFIALQQ [Peptide P5-61] | - | 
SAGSEQQLDELLAFIAAALQQ [Peptide P5-50] | Weak+ | 
SELELLLAFIAAALEEEEE [Peptide P5-19] | + | 
SAGSEQQLDLLEMFIMMMLQQ [Peptide P5-38] | - | 
NFGTPDSTVQNPQDASKPNQLDLLLAFIAAALQQ [Peptide P5-78] | Weak+ | 
SAGSEQQEDLLLAFIAAALQQ [Peptide P5-49] | - | 
SAGSEQQLDELLMFIMMMLQQ [Peptide P5-36] | + | 
SEEQLDLLLMFIMMMLQQEE [Peptide P5-47] | + | Effectiveness Covered (%) [2]: 78* %; Effectiveness Uncovered (%) [2]: 87* %
SEEEEELDLLLAFIAAAL [Peptide P5-7] | - | Effectiveness Covered (%) [2]: 91* %; Effectiveness Uncovered (%) [2]: 71%
SAGSEQQLDLLLEFIMMMLQQ [Peptide P5-39] | Strong+ | 
SELELLLEFIEEELEE [Peptide P5-20] | - | 
SEEQLDLLLAFIAAALQQEE [Peptide P5-87] | - | 
SAGSEQQLDLLLEFIALQQ [Peptide P5-63] | - | 

Sequence | HR [1] | also measured
SAGSEQQLELLLAFIAAALQQ [Peptide P5-4] | + | Effectiveness Covered (%) [2]: 98* %; Effectiveness Uncovered (%) [2]: 97* %
SAGSEQQLDELLAFIALQQ [Peptide P5-62] | - | 
SAGSEQQLDLLLAEIAAALQQ [Peptide P5-69] | - | 
ITPDGQGGGQIGDNPQLDLLLMFIMMMLQQ [Peptide P5-79] | Strong+ | 
SEEEEELDLLLAFIAAALQQ [Peptide P5-8] | Weak+ | Effectiveness Covered (%) [2]: 99* %; Effectiveness Uncovered (%) [2]: 99* %
SAGSEQQLDLLLMFIEMMLQQ [Peptide P5-42] | Weak+ | 
SEEEEELDLLLAFIAAALA [Peptide P5-17] | - | 
SEEELELLLAFIAAALEEEE [Peptide P5-22] | + | Effectiveness Covered (%) [2]: 62%; Effectiveness Uncovered (%) [2]: 82%
NFGTPDSTVQNPQDASKPNQLDLLLMFIMMMLQQ [Peptide P5-77] | Weak+ | 
SEEELDQLLLMFIMMMLEE [Peptide P5-30] | + | 
SQAGSEQLDLLLMFIMMMLQQ [Peptide P5-73] | + | 
SEEEEELDLLLAFIAAALS [Peptide P5-16] | - | 
SEEEEELDQLLLAFIAAALQQ [Peptide P5-23] | Weak+ | 
SEEEQLDQLLLMFIMMMLEE [Peptide P5-32] | + | 
SEEEEELDQLLLAFIAAAL [Peptide P5-24] | - | 
SAGSEQQLDLLLMFIMMMEQQ [Peptide P5-45] | - | 
NQGISEKQQLDLLLMFIMMMLQQ [Peptide P5-75] | Strong+ | Dry Weight Increase (%) (soy; 0.2 ug/ml): 3.73%; Fresh Weight Increase (%) (soy; 0.2 ug/ml): 8.78** %; Dry Weight Increase (%) (soy; 2.0 ug/ml): 4.37%; Fresh Weight Increase (%) (soy; 2.0 ug/ml): 8.55** %
SEEELDLLLAFIAAALDD [Peptide P5-13] | - | 
SEEQEEELLAFIAAALQQEE [Peptide P5-58] | - | 
SEEQLEELLAFIAAALQQEE [Peptide P5-57] | + | 
SAGSEQQEDQLLLMFIMMMLQQ [Peptide P5-53] | - | 
SAGSEQQLDLLLMEIMMMLQQ [Peptide P5-40] | Strong+ | 
SAGSEQQLDLLLMFIAAALQQ [Peptide P5-2] | + | elicitation of HR, effect of Met to Ala mutations [1]: do not affect the elicitation of HR; Effectiveness Covered (%) [2]: 90* %; Effectiveness Uncovered (%) [2]: 25%
SEEELDLLLMFIMMMLEE [Peptide P5-29] | + | 

Sequence | HR [1] | also measured
SEEQLELLLAFIAAALQEE [Peptide P5-88] | + | 
SAGSEQQEDELLAFIAAALQQ [Peptide P5-51] | - | 
SEEEQLDLLLMFIMMMLQEE [Peptide P5-33] | + | Dry Weight Increase (%) (soy; 2.0 ug/ml): 5.02** %; Fresh Weight Increase (%) (soy; 2.0 ug/ml): 4.10%
SEEEEELDLLLAFIAAALGG [Peptide P5-14] | Weak+ | 
SEEEQLDLLLMFIMMMLEE [Peptide P5-31] | + | 
SAGSEQQEDELLMFIMMMLQQ [Peptide P5-52] | - | 
SAGSEQQLDLLLMFIMEMLQQ [Peptide P5-43] | Strong+ | 
SAGSEQQLDELLAFIAAALQQ [Peptide P5-72] | - | 
SAGSEQQLDLLLAEIALQQ [Peptide P5-64] | - | 
SEEQEELLLAFIAAALQQEE [Peptide P5-56] | - | 
ITPDGQGGGQIGDNPQLDLLLAFIAAALQQ [Peptide P5-80] | Weak+ | 
SEEQLDLLLAFIAAALQEE [Peptide P5-26] | + | 
SAGSEQQLDLLLMFIMMELQQ [Peptide P5-44] | Weak+ | 
SEEEEELDLLLAFIAAALQ [Peptide P5-15] | - | 
SEEEEELDLLLAFIAAALE [Peptide P5-18] | - | 
SAGSEQQLDLELMFIMMMLQQ [Peptide P5-37] | - | 
SAGSEQQLDLLLAFIEAALQQ [Peptide P5-67] | - | 
AEQGSSQLDLLLMFIMMMLQQ [Peptide P5-74] | + | 
SAGSEQQLDQLLLAFIAAALQQ [Peptide P5-55] | - | 
SAGSEQQLDQLLLMFIMMMLQQ [Peptide P5a] | + | 
SAGSEQQLDLLLAFIAAALQQ [Peptide P5-3] | + | elicitation of HR, effect of Met to Ala mutations [1]: do not affect the elicitation of HR; Effectiveness Covered (%) [2]: 70* %; Effectiveness Uncovered (%) [2]: 55%
LDLLLAFIEEELEEEE [Peptide P5-10] | - | 
SAGSEQQLDLLLAFIAAELQQ [Peptide P5-68] | - | 
